As a reminder, the IC50 is the concentration that inhibits the measured activity by half. Usually EC50 stands for the concentration at which the effect is half-maximal.

Data on 9 molecules can be found in patent US20190225650A1, “PEPTIDOMIMETIC MACROCYCLES AND USE THEREOF IN REGULATING HIF1ALPHA” (AILERON THERAPEUTICS, INC., priority 2013, published 2019).

The structures appear in SMILES notation. Bridge positions count the residues as written; N and C are the ends. Square brackets hold non-standard residues; d marks the D form. Peptide text beside a SMILES is read from it. R8 = C=CCCCCCC[C@@](C)(N)C(=O)O; S5 = C=CCCC[C@](C)(N)C(=O)O; Nle = CCCC[C@H](N)C(=O)O A value given as a limit tells only on which side of the number the result lay.

Assay [1] addresses T1, flag-tagged HIF1α (AA 786-826) / His6-tagged p300 (AA 323-423) complex (Homo sapiens, UniProt Q09472).
T1 construct: His6-tagged p300 (AA 323-423); made in house; host or cells: E. coli (pETDuet vector)
Description: HIF1α p300 displacement assay (TR FRET, +CHAPS). Type of assay: binding. As to conditions: read-out: IC50 (nM) (HIF1α_p300 Displacement + CHAPS). The method in brief: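 The co-expressed flag-HIF1α (786-826)/His6-p300 (323-423) complex, purified from E. coli with 0.1 mM ZnSO4, was used at 300 nM final with competitor peptides for 1 h at room temperature. Buffer was 150 mM NaCl, 20 mM HEPES pH 7.4, 7.5 mM CHAPS and 1 mM DTT. Anti-Flag-K (0.5 μM) and anti-His-D2 (4 nM) were then added for 2 h, and IC50s were fitted from the TR-FRET ratio.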
(In general: Time-resolved FRET reads energy transfer from a long-lived donor to a nearby acceptor.)

For assay [2], the system named is HRE-bla ME-180 cells. Description: Reporter gene assay (HRE-bla ME-180 HIF reporter, GeneBLAzer). The format is cell-based, human. As to conditions: for EC50: 24 hour normoxia. In a few lines: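 A FRET β-lactamase readout of HIF transcription was used. After compound treatment in 0.3% DMSO/media under normoxic conditions, 20 μl of 6× LiveBLAzer-FRET B/G (CCF4-AM) substrate was added. Plates sat 3 hr at room temperature in the dark and were read at 409 Ex/460Em and 409Ex/530Em on a Synergy 2. Inhibition was compared against DMSO vehicle controls, with chetomin as positive control.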
A general note: In a reporter assay the amount or activity of a reporter protein is the signal.

For assay [3], the system named is HRE-bla ME-180 cells. Description: Cell proliferation assay (viability, MTT, 1% FBS). Type of assay: cell-based, human. In a few lines:
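ME-180 cells (2×10^4/well) in Opti-MEM with 1% FBS were pretreated 16 h under normoxia (21% O2), vehicle 0.5% DMSO final. Incubation then continued under normoxia or hypoxia (1% O2); viable cells quantified by MTT-type CellTiter 96 assay.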

Regarding `CC[C@H](C)[C@H](NC(=O)[C@H](Cc1ccccc1)NC(C)=O)C(=O)N[C@@H](CC(=O)O)C(=O)N[C@@H](CCC(=O)O)C(=O)N[C@@H](CCC(=O)O)C(=O)N[C@H](C(=O)N[C@@H](CC(C)C)C(=O)N[C@@H](CCSC)C(=O)N[C@@]1(C)CCCC=CCCC[C@@](C)(C(=O)N[C@@H](CCSC)C(=O)N[C@@H](C)C(=O)N[C@@H](CC(C)C)C(=O)N[C@@H](CO)C(=O)N[C@@H](CCCNC(=N)N)C(N)=O)NC(=O)[C@H]([C@@H](C)CC)NC(=O)[C@H](C(C)C)NC(=O)[C@H](CC(C)C)NC1=O)C(C)C` [SP-287] (Ac-FIDEEVLM[S5]LVI[S5]MALSR-NH2; staple 9-13), the IC50 in assay [1] was > 700 nM. Besides, in assay [2], the “18 h Avg % max inhibition at top conc (HIF Rptr-24 hrs normoxia) (μM)” value (“18 h Avg % max inhibition at top conc” below) is listed as “++++ (≥50: ++++)” and the EC50 is 5 to 15 µM. Further, in assay [3], the “Viability 1% FBS AVG (MTT V3-24 hr Normoxia) (μM)” value (“Viability 1% FBS AVG” below) is “++++ (≥30: ++++)”.
The corresponding values for `CCCC[C@H](NC(=O)[C@H](CCC(=O)O)NC(=O)[C@]1(C)CCCC=CCCCCCC[C@@](C)(NC(=O)[C@H](C)NC(=O)[C@H](CC(=O)O)NC(=O)[C@@H](NC(=O)[C@H](CC(N)=O)NC(=O)[C@@H](NC(=O)[C@H](CCC(N)=O)NC(=O)[C@]2(C)CCCC=CCCC[C@](C)(NC(=O)[C@H](CC(C)C)NC(=O)[C@H](CCC(=O)O)NC(=O)[C@H](CCC(=O)O)NC(=O)CNC(=O)[C@H](CCC(N)=O)NC(=O)[C@H](CC(C)C)NC(=O)[C@H](CC(C)C)NC(C)=O)C(=O)N[C@@H](CCCNC(=N)N)C(=O)N[C@@H](C)C(=O)N[C@@H](CC(C)C)C(=O)N2)C(C)C)[C@@H](C)CC)C(=O)N[C@@H](C(C)C)C(=O)N[C@@H](CC(C)C)C(=O)N[C@@H](CCCC)C(=O)N[C@@H](CO)C(=O)N[C@@H](CC(C)C)C(=O)N[C@@H](C(C)C)C(=O)N1)C(N)=O` [SP-362] (Ac-LLQGEEL[S5]RAL[S5]QVNIDA[R8]VL[Nle]SLV[S5]E[Nle]-NH2; staple 8-12, 19-26) are 400 to 700 nM, “++++ (≥50: ++++)”, 5 to 15 µM and “++++ (≥30: ++++)”.
In the same order, the values of `CC[C@H](C)[C@H](NC(=O)[C@H](CCCNC(=N)N)NC(=O)[C@H](CC(=O)O)NC(=O)[C@H](CC(C)C)NC(=O)[C@H](C)NC(=O)[C@H](CCSC)NC(=O)[C@H](CCC(=O)O)NC(=O)[C@@H](NC(=O)[C@@H](NC(=O)[C@H](CC(C)C)NC(=O)[C@]1(C)CCCC=CCCC[C@](C)(NC(=O)[C@H](CCC(=O)O)NC(=O)[C@H](CC(=O)O)NC(=O)[C@@H](NC(=O)[C@H](Cc2ccccc2)NC(C)=O)[C@@H](C)CC)C(=O)N[C@@H](C(C)C)C(=O)N[C@@H](CC(C)C)C(=O)N[C@@H](CCSC)C(=O)N1)C(C)C)[C@@H](C)CC)C(N)=O` [SP-108] (Ac-FIDE[S5]VLM[S5]LVIEMALDRI-NH2; staple 5-9) are ≤ 200 nM, “++ (≤10 but <25: ++)”, > 30 µM and “++++ (≥30: ++++)”.
For the molecule `CCCC[C@H](NC(=O)[C@H](CCC(=O)O)NC(=O)[C@@H](NC(=O)[C@@H](NC(=O)[C@H](CC(C)C)NC(=O)[C@]1(C)CCCC=CCCC[C@](C)(NC(=O)[C@H](C)NC(=O)[C@H](CC(=O)O)NC(=O)[C@@H](NC(=O)[C@H](Cc2ccccc2)NC(C)=O)[C@@H](C)CC)C(=O)N[C@@H](C(C)C)C(=O)N[C@@H](CC(C)C)C(=O)N[C@@H](CCCC)C(=O)N1)C(C)C)[C@@H](C)CC)C(=O)N[C@@H](C)C(=O)N[C@@H](CC(C)C)C(N)=O` [SP-148] (Ac-FIDA[S5]VL[Nle][S5]LVIE[Nle]AL-NH2; staple 5-9), the IC50 in assay [1] was > 700 nM. Further, in assay [2], the “18 h Avg % max inhibition at top conc” value is “+++ (≤25 but <50: +++)” and the EC50 is > 30 µM. Moreover, the “Viability 1% FBS AVG” value in assay [3] is “++++ (≥30: ++++)”.
The corresponding values for `CC[C@H](C)[C@H](NC(=O)[C@H](CCCNC(=N)N)NC(=O)[C@H](CC(N)=O)NC(=O)[C@H](CC(C)C)NC(=O)[C@H](C)NC(=O)[C@H](CCSC)NC(=O)[C@]1(C)CCCC=CCCC[C@](C)(NC(=O)[C@H](CCSC)NC(=O)[C@H](CC(C)C)NC(=O)[C@@H](NC(=O)[C@H](C)NC(=O)[C@H](CCC(N)=O)NC(=O)[C@H](CC(N)=O)NC(=O)[C@@H](NC(=O)[C@H](Cc2ccccc2)NC(C)=O)[C@@H](C)CC)C(C)C)C(=O)N[C@@H](CC(C)C)C(=O)N[C@@H](C(C)C)C(=O)N[C@@H]([C@@H](C)CC)C(=O)N1)C(N)=O` [SP-272] (Ac-FINQAVLM[S5]LVI[S5]MALNRI-NH2; staple 9-13) are > 700 nM, “++++ (≥50: ++++)”, ≤ 5 µM and “++ (≤5 but <15: ++)”.
Turning to `CCCC[C@H](NC(=O)[C@H](Cc1ccccc1)NC(=O)[C@@H](NC(=O)[C@H](C)NC(=O)[C@H](CCC(=O)O)NC(=O)[C@H](CC(=O)O)NC(=O)[C@@H](NC(=O)[C@H](Cc1ccccc1)NC(C)=O)[C@@H](C)CC)C(C)C)C(=O)N[C@@]1(C)CCCC=CCCC[C@@](C)(C(=O)N[C@@H](CCCC)C(=O)N[C@@H](C)C(=O)N[C@@H](CC(C)C)C(=O)N[C@@H](CC(C)C)C(N)=O)NC(=O)[C@H]([C@@H](C)CC)NC(=O)[C@H](C(C)C)NC(=O)[C@H](CC(C)C)NC1=O` [SP-249] (Ac-FIDEAVF[Nle][S5]LVI[S5][Nle]ALL-NH2; staple 9-13), the IC50 in assay [1] is > 700 nM. Also, in assay [2], the “18 h Avg % max inhibition at top conc” value is reported as “+ (<10: +)” and the concentration giving a half-maximal response (EC50) was > 30 µM. In assay [3], the “Viability 1% FBS AVG” value is “++++ (≥30: ++++)”.
The corresponding values for `CCCC[C@@H]1NC(=O)[C@H](CC(C)C)NC(=O)[C@](C)(NC(=O)[C@H](CCC(=O)O)NC(=O)[C@H](CCC(=O)O)NC(=O)[C@H](CC(=O)O)NC(=O)[C@@H](NC(=O)[C@H](Cc2ccccc2)NC(C)=O)[C@@H](C)CC)CCCCCCC=CCCC[C@@](C)(C(=O)N[C@@H](CCCC)C(=O)N[C@@H](C)C(=O)N[C@@H](CC(C)C)C(N)=O)NC(=O)[C@H]([C@@H](C)CC)NC(=O)[C@H](C(C)C)NC(=O)[C@H](CC(C)C)NC(=O)[C@H](CO)NC1=O` [SP-199] (Ac-FIDEE[R8]L[Nle]SLVI[S5][Nle]AL-NH2; staple 6-13) are 200 to 400 nM, “+ (<10: +)”, > 30 µM and “++++ (≥30: ++++)”.
In the same order, the values of `CCCC[C@H](NC(=O)[C@H](CCC(=O)O)NC(=O)[C@]1(C)CCCC=CCCCCCC[C@@](C)(NC(=O)[C@H](CCC(=O)O)NC(=O)[C@H](CC(=O)O)NC(=O)[C@@H](NC(=O)[C@H](CC(N)=O)NC(=O)[C@@H](NC(=O)[C@]2(C)CCCC=CCCCCCC[C@@](C)(NC(=O)[C@H](CCC(=O)O)NC(C)=O)C(=O)N[C@@H](CC(C)C)C(=O)N[C@@H](CC(C)C)C(=O)N[C@@H](CCCNC(=N)N)C(=O)N[C@@H](C)C(=O)N[C@@H](CC(C)C)C(=O)N[C@@H](CC(=O)O)C(=O)N2)C(C)C)[C@@H](C)CC)C(=O)N[C@@H](C(C)C)C(=O)N[C@@H](CC(C)C)C(=O)N[C@@H](CCCC)C(=O)N[C@@H](CO)C(=O)N[C@@H](CC(C)C)C(=O)N[C@@H](C(C)C)C(=O)N1)C(N)=O` [SP-358] (Ac-E[R8]LLRALD[S5]VNIDE[R8]VL[Nle]SLV[S5]E[Nle]-NH2; staple 2-9, 15-22) are 200 to 400 nM, “+ (<10: +)”, > 30 µM and “++++ (≥30: ++++)”.
As to `CCCC[C@H](NC(=O)[C@H](CCC(=O)O)NC(=O)[C@@H](NC(=O)[C@@H](NC(=O)[C@H](C)NC(=O)[C@]1(C)CCCC=CCCC[C@](C)(NC(=O)[C@H](CCC(=O)O)NC(=O)[C@H](CC(=O)O)NC(=O)[C@@H](NC(=O)[C@H](Cc2ccccc2)NC(C)=O)[C@@H](C)CC)C(=O)N[C@@H](C(C)C)C(=O)N[C@@H](CC(C)C)C(=O)N[C@@H](CCCC)C(=O)N1)C(C)C)[C@@H](C)CC)C(=O)N[C@@H](C)C(=O)N[C@@H](CC(C)C)C(N)=O` [SP-142] (Ac-FIDE[S5]VL[Nle][S5]AVIE[Nle]AL-NH2; staple 5-9), the concentration for half-maximal inhibition (IC50) in assay [1] lay within 400 to 700 nM. In assay [2], the “18 h Avg % max inhibition at top conc” value was “+++ (≤25 but <50: +++)” and the concentration giving a half-maximal response (EC50) is > 30 µM. Further, the “Viability 1% FBS AVG” value in assay [3] was “++++ (≥30: ++++)”.
